Data from patent publication US12404279B2, “Deubiquitinase inhibitors and methods of use thereof” (Molecure S.A., priority 2021, dated 2025).
Counter-ions that a name gives are not always drawn.

Molecular target: full-length USP7 (Homo sapiens (Human), UniProt Q93009)
Assay: Enzymatic assay to determine IC50 of USP7 inhibitors (Ubiquitin-Rhodamine 110 cleavage)
Assay type: biochemical
Conditions: 0.5 nM USP7, 0.5 μM Ubiquitin-Rhodamine 110, 45 min at 37° C.
Protocol: For the inhibitors disclosed herein, their potency was measured using the following method.
A 45 μl reaction volume containing full-length USP7 (0.5 nM) in 50 mM HEPES pH 7.5, 150 mM NaCl, 1 mM DTT, 1 mg/ml BSA and 0.05% Tween20 was assembled in wells of 96 well half area black flat bottom plates. Test compounds were first dissolved to 25 mM stocks in DMSO and subsequently introduced to enzyme 15 min after USP7 incubation with DTT at room temperature. The enzymatic reaction was started by adding 0.5 μM Ubiquitin-Rhodamine 110 (final concentration) and allowed to proceed for 45 min at 37° C., 250 RPM shaking before Rhodamine fluorescence (485 nm excitation/520 nm emission) was measured using Tecan Spark M10 plate reader.

Chain of full-length USP7 (Q93009 whole entry): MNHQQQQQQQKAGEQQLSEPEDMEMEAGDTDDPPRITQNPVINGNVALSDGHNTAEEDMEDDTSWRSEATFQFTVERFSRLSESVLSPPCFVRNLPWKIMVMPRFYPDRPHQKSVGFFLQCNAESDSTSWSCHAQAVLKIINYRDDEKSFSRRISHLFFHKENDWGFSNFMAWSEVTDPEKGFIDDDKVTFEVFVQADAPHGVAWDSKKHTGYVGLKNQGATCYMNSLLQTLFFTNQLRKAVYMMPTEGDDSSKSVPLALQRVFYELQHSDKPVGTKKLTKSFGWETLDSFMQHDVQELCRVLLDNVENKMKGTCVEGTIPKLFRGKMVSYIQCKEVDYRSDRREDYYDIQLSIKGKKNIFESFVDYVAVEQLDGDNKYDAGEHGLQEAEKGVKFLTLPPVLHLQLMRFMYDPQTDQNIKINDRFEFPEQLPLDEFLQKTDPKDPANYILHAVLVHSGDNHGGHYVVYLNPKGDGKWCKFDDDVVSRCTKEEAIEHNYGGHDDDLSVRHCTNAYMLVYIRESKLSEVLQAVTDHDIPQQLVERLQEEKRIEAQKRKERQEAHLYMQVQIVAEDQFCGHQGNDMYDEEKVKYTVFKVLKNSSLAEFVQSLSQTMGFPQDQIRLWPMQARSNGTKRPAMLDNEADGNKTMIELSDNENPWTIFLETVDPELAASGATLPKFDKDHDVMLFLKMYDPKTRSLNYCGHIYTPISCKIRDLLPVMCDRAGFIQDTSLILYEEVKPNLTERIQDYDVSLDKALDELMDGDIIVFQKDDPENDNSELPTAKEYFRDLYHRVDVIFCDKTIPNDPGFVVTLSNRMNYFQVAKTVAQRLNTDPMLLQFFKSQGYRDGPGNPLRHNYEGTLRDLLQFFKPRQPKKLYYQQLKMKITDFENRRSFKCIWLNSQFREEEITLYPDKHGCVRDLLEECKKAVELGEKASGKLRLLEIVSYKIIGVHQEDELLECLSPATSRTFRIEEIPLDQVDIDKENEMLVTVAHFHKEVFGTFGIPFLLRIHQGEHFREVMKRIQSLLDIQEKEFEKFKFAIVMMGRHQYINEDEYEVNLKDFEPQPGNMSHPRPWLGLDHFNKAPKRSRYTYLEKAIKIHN

| Molecule | IC50 |
| --- | --- |
| 3-((7-(3-(3,3-difluoroazetidine-1-carbonyl)-4,6-dimethylpyridin-2-yl)thieno[3,2-b]pyridin-2-yl)methyl)-6,6-dimethyl-3-azabicyclo[3.1.0]hexane-2,4-dione hydrochloride [Example 85] | 1000 to 10000 nM |
| 6,6-dimethyl-3-((7-(2-methyl-3-(pyrrolidin-3-ylamino)-6-(trifluoromethyl)pyridin-4-yl)thieno[3,2-b]pyridin-2-yl)methyl)-3-azabicyclo[3.1.0]hexane-2,4-dione 2,2,2-trifluoroacetate [Example 25] | < 500 nM |
| 6,6-dimethyl-3-((7-(2-methyl-3-(pyrrolidin-3-ylmethyl)-6-(trifluoromethyl)pyridin-4-yl)thieno[3,2-b]pyridin-2-yl)methyl)-3-azabicyclo[3.1.0]hexane-2,4-dione 2,2,2-trifluoroacetate [Example 88] | < 500 nM |
| 6-(2-((6,6-dimethyl-2,4-dioxo-3-azabicyclo[3.1.0]hexan-3-yl)methyl)thieno[3,2-b]pyridin-7-yl)-4-methyl-5-((S)-2-methylpiperazine-1-carbonyl)picolinonitrile hydrochloride [Example 47] | < 500 nM |
| Cc1cc(Cl)nc(-c2ccnc3cc(CN4C(=O)C5C(C4=O)C5(C)C)sc23)c1OC1CCNC1 (racemic) [Example 2, 3-((7-(6-chloro-4-methyl-3-(pyrrolidin-3-yloxy)pyridin-2-yl)thieno[3,2-b]pyridin-2-yl)methyl)-6,6-dimethyl-3-azabicyclo[3.1.0]hexane-2,4-dione hydrochloride] | < 500 nM |
| Cc1cc(Cl)nc(-c2ccnc3cc(CN4C(=O)C5C(C4=O)C5(C)C)sc23)c1OC1CCCNC1 (racemic) [Example 3, 3-((7-(6-chloro-4-methyl-3-(piperidin-3-yloxy)pyridin-2-yl)thieno[3,2-b]pyridin-2-yl)methyl)-6,6-dimethyl-3-azabicyclo[3.1.0]hexane-2,4-dione hydrochloride] | < 500 nM |
| Cc1nc(C(F)(F)F)cc(-c2ccnc3cc(CN4C(=O)C5C(C4=O)C5(C)C)sc23)c1OC1CCNC1 (racemic) [Example 21, 6,6-dimethyl-3-((7-(2-methyl-3-(pyrrolidin-3-yloxy)-6-(trifluoromethyl)pyridin-4-yl)thieno[3,2-b]pyridin-2-yl)methyl)-3-azabicyclo[3.1.0]hexane-2,4-dione 2,2,2-trifluoroacetate] | < 500 nM |
| Cc1cc(C(F)(F)F)nc(-c2ccnc3cc(CN4C(=O)C5C(C4=O)C5(C)C)sc23)c1CC1CNCCN1 (racemic) [Example 35, 6,6-dimethyl-3-((7-(4-methyl-3-(piperazin-2-ylmethyl)-6-(trifluoromethyl)pyridin-2-yl)thieno[3,2-b]pyridin-2-yl)methyl)-3-azabicyclo[3.1.0]hexane-2,4-dione hydrochloride] | < 500 nM |
| Cc1nc(C(F)(F)F)cc(-c2ccnc3cc(CN4C(=O)C5C(C4=O)C5(C)C)sc23)c1NC(=O)C1CCNC1 (racemic) [Example 64, N-(4-(2-((6,6-dimethyl-2,4-dioxo-3-azabicyclo[3.1.0]hexan-3-yl)methyl)thieno[3,2-b]pyridin-7-yl)-2-methyl-6-(trifluoromethyl)pyridin-3-yl)pyrrolidine-3-carboxamide 2,2,2-trifluoroacetate] | 1000 to 10000 nM |
| Cc1nc(C(F)(F)F)cc(-c2ccnc3cc(CN4C(=O)C5C(C4=O)C5(C)C)sc23)c1NC(=O)C1CCN(C(=O)C(F)(F)F)C1 (racemic) [Example 65, N-(4-(2-((6,6-dimethyl-2,4-dioxo-3-azabicyclo[3.1.0]hexan-3-yl)methyl)thieno[3,2-b]pyridin-7-yl)-2-methyl-6-(trifluoromethyl)pyridin-3-yl)-1-(2,2,2-trifluoroacetyl)pyrrolidine-3-carboxamide 2,2,2-trifluoroacetate] | > 10000 nM |
| Cc1cc(C(F)(F)F)nc(-c2ccnc3cc(CN4C(=O)C5C(C4=O)C5(C)C)sc23)c1C(=O)N1CCC2CNCC21 (racemic) [Example 72, 6,6-dimethyl-3-((7-(4-methyl-3-(octahydropyrrolo[3,4-b]pyrrole-1-carbonyl)-6-(trifluoromethyl)pyridin-2-yl)thieno[3,2-b]pyridin-2-yl)methyl)-3-azabicyclo[3.1.0]hexane-2,4-dione dihydrochloride] | < 500 nM |
| Cc1nc(C(F)(F)F)cc(-c2ccnc3cc(CN4C(=O)C5C(C4=O)C5(C)C)sc23)c1CC1CNCCO1 (racemic) [Example 91, 6,6-dimethyl-3-((7-(2-methyl-3-(morpholin-2-ylmethyl)-6-(trifluoromethyl)pyridin-4-yl)thieno[3,2-b]pyridin-2-yl)methyl)-3-azabicyclo[3.1.0]hexane-2,4-dione 2,2,2-trifluoroacetate] | < 500 nM |
| Cc1cc(C(F)(F)F)nc(-c2ccnc3cc(CN4C(=O)C5C(C4=O)C5(C)C)sc23)c1CC1CNCCO1 (racemic) [Example 92, 6,6-dimethyl-3-((7-(4-methyl-3-(morpholin-2-ylmethyl)-6-(trifluoromethyl)pyridin-2-yl)thieno[3,2-b]pyridin-2-yl)methyl)-3-azabicyclo[3.1.0]hexane-2,4-dione 2,2,2-trifluoroacetate] | < 500 nM |
| Cc1cc(C)c(NC2CCNC2)c(-c2ccnc3cc(CN4C(=O)C5C(C4=O)C5(C)C)sc23)n1 (racemic) [Example 124, 3-((7-(4,6-dimethyl-3-(pyrrolidin-3-ylamino)pyridin-2-yl)thieno[3,2-b]pyridin-2-yl)methyl)-6,6-dimethyl-3-azabicyclo[3.1.0]hexane-2,4-dione 2,2,2-trifluoroacetate] | < 500 nM |
| Cc1nc(Cl)cc(-c2ccnc3cc(CN4C(=O)C5C(C4=O)C5(C)C)sc23)c1NC1CCNC1 (racemic) [Example 125, 3-((7-(6-chloro-2-methyl-3-(pyrrolidin-3-ylamino)pyridin-4-yl)thieno[3,2-b]pyridin-2-yl)methyl)-6,6-dimethyl-3-azabicyclo[3.1.0]hexane-2,4-dione 2,2,2-trifluoroacetate] | < 500 nM |
| Cc1cc(Cl)nc(-c2ccnc3cc(CN4C(=O)C5C(C4=O)C5(C)C)sc23)c1NC1CCCNC1 (racemic) [Example 129, 3-((7-(6-chloro-4-methyl-3-(piperidin-3-ylamino)pyridin-2-yl)thieno[3,2-b]pyridin-2-yl)methyl)-6,6-dimethyl-3-azabicyclo[3.1.0]hexane-2,4-dione tetrahydrochloride] | < 500 nM |
| Cc1cc(C(F)(F)F)nc(-c2ccnc3cc(CN4C(=O)C5C(C4=O)C5(C)C)sc23)c1C(=O)N1CCC(C)(N)C1 (racemic) [Example 137, 3-((7-(3-(3-amino-3-methylpyrrolidine-1-carbonyl)-4-methyl-6-(trifluoromethyl)pyridin-2-yl)thieno[3,2-b]pyridin-2-yl)methyl)-6,6-dimethyl-3-azabicyclo[3.1.0]hexane-2,4-dione trihydrochloride] | 500 to 1000 nM |
| Cc1cc(C(F)(F)F)nc(-c2ccnc3cc(CN4C(=O)C5C(C4=O)C5(C)C)sc23)c1C(=O)N1CCC(CN)C1 (racemic) [Example 139, 3-((7-(3-(3-(aminomethyl)pyrrolidine-1-carbonyl)-4-methyl-6-(trifluoromethyl)pyridin-2-yl)thieno[3,2-b]pyridin-2-yl)methyl)-6,6-dimethyl-3-azabicyclo[3.1.0]hexane-2,4-dione trihydrochloride] | < 500 nM |
| Cc1cc(C(F)(F)F)nc(-c2ccnc3cc(CN4C(=O)C5C(C4=O)C5(C)C)sc23)c1C(=O)N1CCC(CNC(C)C)C1 (racemic) [Example 140, 3-((7-(3-(3-((isopropylamino)methyl)pyrrolidine-1-carbonyl)-4-methyl-6-(trifluoromethyl)pyridin-2-yl)thieno[3,2-b]pyridin-2-yl)methyl)-6,6-dimethyl-3-azabicyclo[3.1.0]hexane-2,4-dione trihydrochloride] | < 500 nM |
| Cc1cc(C(F)(F)F)nc(-c2ccnc3cc(CN4C(=O)N(C)C5(CC5)C4=O)sc23)c1NC1CCNC1 (racemic) [Example 145, 4-methyl-6-((7-(4-methyl-3-(pyrrolidin-3-ylamino)-6-(trifluoromethyl)pyridin-2-yl)thieno[3,2-b]pyridin-2-yl)methyl)-4,6-diazaspiro[2.4]heptane-5,7-dione dihydrochloride] | < 500 nM |
| Cc1cc(Cl)nc(-c2ccnc3cc(CN4C(=O)C5C(C4=O)C5(C)C)sc23)c1O[C@H]1CCCNC1 (single isomer, unassigned) [Example 4, hydrochloride] | < 500 nM |
| Cc1ccnc(-c2ccnc3cc(CN4C(=O)C5C(C4=O)C5(C)C)sc23)c1C(O)[C@@H]1CNCCO1 (single isomer, unassigned) [Example 100, 2,2,2-trifluoroacetate] | 1000 to 10000 nM |
| Cc1cc(C#N)nc(-c2ccnc3cc(CN4C(=O)C5C(C4=O)C5(C)C)sc23)c1OC1CCCNC1 (stereo not drawn) [Example 1, 6-(2-((6,6-dimethyl-2,4-dioxo-3-azabicyclo[3.1.0]hexan-3-yl)methyl)thieno[3,2-b]pyridin-7-yl)-4-methyl-5-(piperidin-3-yloxy)picolinonitrile 2,2,2-trifluoroacetate] | < 500 nM |
| Cc1nc(C#N)cc(-c2ccnc3cc(CN4C(=O)C5C(C4=O)C5(C)C)sc23)c1C(=O)N1CCNC[C@@H]1C (stereo partly drawn) [Example 5, 4-(2-((6,6-dimethyl-2,4-dioxo-3-azabicyclo[3.1.0]hexan-3-yl)methyl)thieno[3,2-b]pyridin-7-yl)-6-methyl-5-((S)-2-methylpiperazine-1-carbonyl)picolinonitrile 2,2,2-trifluoroacetate] | < 500 nM |
